Results reported in patent publication US20240239774A1, “SOLUBLE ADENYLYL CYCLASE (SAC) INHIBITORS AND USES THEREOF” (Cornell University, priority 2021, published 2024).

Assays:
[1] = test system: mouse oocytes with capacitated wild-type sperm; experiment: In vitro fertilization; format: cell-based
Protocol: In vitro fertilization: On the day of preparation, sperm were capacitated for 90 min in HTF medium (EmbryoMax Human Tubal Fluid; Merck Millipore). 100 μl drops of HTF were covered with medium/oil mixture (HTF mixed 1:1 with mineral oil), and 10^5 sperm were added to each drop. Cumulus-enclosed oocytes were prepared from the oviducts of superovulated females and added to the drops. […] The number of 2-cell stages was evaluated after 24 hr.

mouse sperm = experiment: Acrosome reaction assay; format: cell-based; conditions: 5 μM Example 1 or 10 nM Example 133; capacitating media 90 minutes
Protocol: Zonae pellucidae were isolated from female mice superovulated by intraperitoneal injection of 10 I.U. […] 3 days before the experiment. 14 hours before oocyte isolation, mice were injected with 10 I.U. […]. Oviducts were collected following cervical dislocation. Cumulus-enclosed oocytes were separated from the oviducts and placed into TYH buffer containing 300 μg/ml hyaluronidase. After 15 minutes, cumulus-free oocytes were transferred into fresh buffer and washed twice. Zonae pellucidae and oocytes were separated by shear forces generated by expulsion from […] pasteur pipettes. Zona pellucidae were counted, transferred into fresh buffer and heat-solubilized by incubation for 10 minutes at 65° C.
For analysis of acrosomal exocytosis, 100 μl of 1×10^7 sperm/ml were capacitated for 90 minutes in TYH buffer supplemented with 3 mg/ml BSA and 25 mM NaHCO3 (mouse sperm) or HTF buffer supplemented with […] HSA and 25 mM NaHCO3 (human sperm). sAC inhibitors were added with capacitating buffer; 0.1% DMSO was used as vehicle control. […] After curing, slides were analyzed using a Zeiss LSM 880 Laser Scanning Confocal Microscope; images were captured with two photomultiplier and one Gallium Arsenide Phosphide detector using ZEN Imaging software. For each condition, at least 600 cells were analyzed using ImageJ 1.52.

Structure (SMILES): Cc1c(Cc2ccccc2)c(-c2cc(Cl)nc(N)n2)nn1C [Example 1, 4-(4-benzyl-1,5-dimethyl-pyrazol-3-yl)-6-chloro-pyrimidin-2-amine]
- amount of 2-cell stage oocytes ([1]; 5 μM, control 30%): 10%
- fertilization in vitro ([1]; 50 μM): fully blocked fertilization

Structure (SMILES): Nc1nc(Cl)cc(-c2nn(C(F)F)cc2Cc2ccccc2OCCN2CCOC[C@H]2CO)n1 [Example 133]
- blocking acrosome reaction induced by zona pellucidae (mouse sperm): more potent than Example 1
